Laboratory results taken from patent publication US12065416B2, “cGAS antagonist compounds” (IMMUNESENSOR THERAPEUTICS, INC., priority 2016, dated 2024).

Target: T1, recombinant cGAS (aa147-522) (Homo sapiens, UniProt Q8N884)
T1 construct: recombinant cGAS (aa147-522); His6-SUMO (N, cleaved yes); made in house; host or cells: E. coli BL21/pLys
Test: In vitro assay for inhibition of cGAS activity (ATP consumption, Kinase Glo)
Format: biochemical
Conditions: 37° C. 20 minutes, read-out: Activity (Inhibition of cGAS enzyme activity in vitro, IC50)
Protocol: cDNA encoding full-length or amino acids 147-520 of human cGAS is inserted into a modified pET28a vector containing an in-frame His6-SUMO tag. The E. coli strain BL21/pLys harboring the plasmid is induced with 0.5 mM IPTG at 18° C. overnight. His6-SUMO tag was removed by a SUMO proease following purification of the HiS-SUMO-cGAS as described previously (Sun et al, 2013, Science 339, 786).
A40 μL mixture containing 1.5 ng/μL of recombinant cGAS (aa147-522) and serial dilutions of a test compound or DMSO was added to a 96-well plate and incubated at 37° C. for 20 minutes. At the end of reaction, 20 μL of Kinase Glo (Promega) was added and chemiluminescence measured with a luminometer. Inhibitory effect of a compound is evaluated by plotting percentage of ATP consumption against logarithm of compound concentrations. IC50 value was calculated using Graphpad (Sigma).

T1 sequence (Q8N884 147-522): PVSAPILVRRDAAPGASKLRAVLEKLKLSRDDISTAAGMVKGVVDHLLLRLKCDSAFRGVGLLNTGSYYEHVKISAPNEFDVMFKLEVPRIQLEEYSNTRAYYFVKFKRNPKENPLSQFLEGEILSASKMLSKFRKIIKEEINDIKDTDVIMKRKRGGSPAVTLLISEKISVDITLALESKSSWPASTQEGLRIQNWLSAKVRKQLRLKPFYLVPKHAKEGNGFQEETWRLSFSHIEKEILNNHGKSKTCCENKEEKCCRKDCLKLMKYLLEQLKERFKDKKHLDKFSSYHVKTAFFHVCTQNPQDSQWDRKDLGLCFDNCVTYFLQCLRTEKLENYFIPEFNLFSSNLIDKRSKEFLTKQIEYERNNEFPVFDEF

SMILES | IC50 [µM]
CN1C(=O)S/C(=C\c2cc(OCc3cncc(N)c3)c(O)cc2Br)C1=O [Ex132] | 0.5 to 10
COc1nc(SC)ncc1COc1cc(/C=C2\SC(=O)N(C)C2=O)c(Br)cc1O [Ex99] | 0.5 to 10
COc1cc(/C=C2\SC(=O)N(C)C2=O)c(C#N)cc1O [Ex205] | 0.5 to 10
CC(C)CNc1cncc(COc2cc(/C=C3\SC(=O)N(C)C3=O)c(Br)cc2O)c1 [Ex229] | ≥ 10
CSc1ncc(COc2cc(/C=C3\SC(=O)N(C)C3=O)c(Br)cc2O)c(SC)n1 [Ex100] | ≥ 10
CN1C(=O)S/C(=C\c2cc(Oc3cccc4c3COCC4)c(O)cc2Br)C1=O [ExB27] | ≥ 10
CN1CCC(c2ncc(COc3cc(/C=C4\SC(=O)N(C)C4=O)c(Br)cc3O)cn2)CC1 [Ex209] | 0.5 to 10
CN1C(=O)S/C(=C\c2cc(C(F)(F)F)c(O)cc2Br)C1=O [ExB16] | ≤ 0.5
CN1C(=O)S/C(=C\c2cc(Oc3cnc(N)s3)c(O)c(F)c2Br)C1=O [ExB30] | 0.5 to 10
CC(Oc1cc(/C=C2\SC(=O)N(C)C2=O)c(Br)c(F)c1Oc1cnc(N)s1)c1cnc(N)nc1 (stereo not drawn) [ExB10] | 0.5 to 10
CN1C(=O)S/C(=C\c2cc(Oc3ccncc3)c(O)cc2Br)C1=O [Ex230] | ≥ 10
CCc1cc(/C=C2\Sc3ncccc3C2=O)c(Br)cc1O [Ex79] | ≤ 0.5
COc1cc(/C=c2\sc3n(c2=O)CCN=3)c(Cl)cc1O [Ex41] | 0.5 to 10
CC(Oc1cc(/C=C2\SC(=O)N(C)C2=O)c(Br)cc1O)c1cnc(NCCO)nc1 (stereo not drawn) [Ex181] | 0.5 to 10
CNc1ncc(C(C)Oc2cc(/C=C3\SC(=O)N(C)C3=O)c(Br)c(F)c2O)cn1 (stereo not drawn) [Ex111] | 0.5 to 10
CN1C(=O)S/C(=C\c2cc(OCc3ccn(-c4ccccc4)c(=O)c3)c(O)cc2Br)C1=O [Ex136] | 0.5 to 10
Cc1nc(N)nc(C)c1COc1cc(/C=C2\SC(=O)N(C)C2=O)c(Br)cc1O [Ex223] | 0.5 to 10
CN1C(=O)S/C(=C\c2cc(OCc3ccc(NC(=O)c4cccnc4)nc3)c(O)cc2Br)C1=O [Ex55] | 0.5 to 10
CN1C(=O)S/C(=C\c2cc(OCc3cnc(-c4ccccc4)nc3)c(O)cc2Br)C1=O [Ex145] | 0.5 to 10
COc1nc(S(C)(=O)=O)ncc1COc1cc(/C=C2\SC(=O)N(C)C2=O)c(Br)cc1O [Ex220] | 0.5 to 10
Cc1ncc(COc2cc(/C=C3\SC(=O)N(C)C3=O)c(Br)cc2O)cn1 [Ex186] | 0.5 to 10
CN1C(=O)S/C(=C\c2cc(OCc3cnc(-c4ccccn4)nc3)c(O)cc2Br)C1=O [Ex97] | 0.5 to 10

SMILES | IC50 [µM]
CN1C(=O)S/C(=C\c2cc(CCc3cnc(N)nc3)c(O)cc2Br)C1=O [ExB41] | 0.5 to 10
CN1C(=O)S/C(=C\c2cc(OCc3cnc([S+](C)[O-])nc3Cl)c(O)cc2Br)C1=O (stereo not drawn) [Ex214] | 0.5 to 10
CN1C(=O)S/C(=C\c2cc(Oc3ccccc3)c(O)cc2Br)C1=O [Ex27] | 0.5 to 10
Cc1ncc(COc2cc(/C=C3\Sc4ncccc4C3=O)c(Br)cc2O)c(C)n1 [Ex120] | ≤ 0.5
O=C1NC(=O)/C(=C/c2ccncc2C(F)(F)F)S1 [Ex4] | ≥ 10
CSc1nc([S+](C)[O-])ncc1COc1cc(/C=C2\Sc3ncccc3C2=O)c(Br)c(F)c1O (stereo not drawn) [ExA16] | ≤ 0.5
CNc1ncc(COc2cc(/C=C3\SC(=O)N(C)C3=O)c(Br)c(F)c2O)cn1 [Ex187] | ≤ 0.5
COc1cc(/C=C2\Sc3ncc(F)cc3C2=O)c(Br)cc1O [Ex48] | ≤ 0.5
CN1C(=O)S/C(=C\c2cc(OCc3cnc(NC(=O)c4ccncc4)nc3)c(O)c(F)c2Br)C1=O [Ex191] | ≤ 0.5
Nc1ncc(COc2cc(/C=C3\Sc4ncccc4C3=O)c(Br)cc2O)c(C(F)(F)F)n1 [Ex118] | ≤ 0.5
CN1C(=O)S/C(=C\c2cc(OCc3ccccc3)c(O)cc2Br)C1=O [Ex88] | 0.5 to 10
CCc1cc(/C=C2\SC(=O)N(C)C2=O)c(Br)cc1O [Ex58] | 0.5 to 10
CNc1ncc(C(C)Oc2cc(/C=C3\SC(=O)N(C)C3=O)c(Br)cc2O)cn1 (stereo not drawn) [Ex105] | 0.5 to 10
CN1C(=O)S/C(=C\c2cc(OCC(=O)Nc3nncs3)c(O)c(F)c2Br)C1=O [ExB1] | 0.5 to 10
O=C1NC(=O)/C(=C/c2ccncc2)S1 [Ex2] | ≥ 10
COc1cc(/C=C2\SC(=O)N(C)C2=O)c(Br)cc1Oc1nncs1 [Ex201] | 0.5 to 10
COc1cc(/C=C2\SC(=O)N(C)C2=O)c(Br)cc1NS(=O)(=O)c1ccc(C)cc1 [Ex24] | ≥ 10
CN1C(=O)S/C(=C\c2cc(Oc3cccc4cnccc34)c(O)cc2Br)C1=O [ExB25] | ≥ 10
COc1cc(/C=C2\SC(=O)N(C)C2=O)c(C(F)(F)F)cc1O [Ex31] | 0.5 to 10
CN1C(=O)S/C(=C\c2cc(OCc3ccccn3)c(O)cc2Br)C1=O [Ex89] | 0.5 to 10
COc1cc(/C=C/C=C2\SC(=O)N(C)C2=O)c(Br)cc1O [Ex37] | 0.5 to 10
O=C1NC(=O)/C(=C/c2ccnnc2)N1 [Ex15] | ≥ 10

SMILES | IC50 [µM]
CN1C(=O)S/C(=C\c2cc(OCc3cnc(S)nc3)c(O)cc2Br)C1=O [Ex219] | 0.5 to 10
CN1C(=O)S/C(=C\c2cc(OCc3ccnc4ccccc34)c(O)cc2Br)C1=O [Ex178] | 0.5 to 10
CN1C(=O)S/C(=C\c2ccc(O)cc2Br)C1=O [Ex52] | 0.5 to 10
COc1cc(/C=C2\SC(=O)N(C)C2=O)c(F)cc1O [Ex29] | ≥ 10
CSc1ncncc1C(=O)C(C)Oc1cc(/C=C2\SC(=O)N(C)C2=O)c(Br)c(F)c1O (stereo not drawn) [ExB36] | ≥ 10
CN1C(=O)S/C(=C\c2cc(OCC3(c4cnc(N)nc4)CC3)c(O)c(F)c2Br)C1=O [ExB6] | 0.5 to 10
O=C1NC(=O)/C(=C/c2cnccn2)S1 [Ex7] | ≥ 10
CN1C(=O)S/C(=C\c2cc(OCc3cc[nH]c(=O)c3)c(O)cc2Br)C1=O [Ex134] | 0.5 to 10
COc1cc(/C=C2\SC(=O)N(C)C2=O)c(C)cc1O [Ex64] | 0.5 to 10
CN1C(=O)S/C(=C\c2cc(OCc3cncc(NC(=O)c4cccnc4)c3)c(O)cc2Br)C1=O [Ex224] | 0.5 to 10
COc1cc(/C=C2\SC(=O)N(C)C2=O)c(Br)cc1-c1nn[nH]n1 [Ex35] | 0.5 to 10
COc1cc(/C=C2\Sc3ncccc3C2=O)c(Br)c(Br)c1O [Ex47] | 0.5 to 10
CN1C(=O)S/C(=C\c2cc(OCCc3cnc(N)nc3N)c(O)c(F)c2Br)C1=O [ExB32] | ≤ 0.5
CC(Oc1cc(/C=C2\SC(=O)N(C)C2=O)c(Br)c(F)c1O)C(O)c1cncnc1N (stereo not drawn) [ExB37] | ≤ 0.5
O=C1NC(=O)/C(=C/c2c[nH]cn2)S1 [Ex6] | ≥ 10
CN1C(=O)S/C(=C\c2cc(OCCc3ccncc3)c(O)cc2Br)C1=O [Ex179] | 0.5 to 10
CN1C(=O)S/C(=C\c2cc(Oc3ccnc(N)c3)c(O)cc2Br)C1=O [Ex101] | 0.5 to 10
O=C1NC(=O)/C(=C/c2ccncc2)S1 [Ex1] | ≤ 0.5
CN1C(=O)S/C(=C\c2cc(OCc3cnc(Nc4cccnc4)nc3)c(O)cc2Br)C1=O [Ex159] | 0.5 to 10
CC(Oc1cc(/C=C2\SC(=O)N(C)C2=O)c(Br)cc1O)c1cnc(N)nc1 (stereo not drawn) [Ex84] | ≤ 0.5
CN1C(=O)S/C(=C\c2cc(OCc3cccc4cnccc34)c(O)cc2Br)C1=O [Ex173] | 0.5 to 10
[2H]C(C)(Oc1cc(/C=C2\SC(=O)N(C)C2=O)c(Br)c(F)c1O)c1cnc(N)nc1 (stereo not drawn) [ExB29] | ≤ 0.5

SMILES | IC50 [µM]
COc1cc(/C=C2\Sc3ncccc3C2=O)c(Br)c(Cl)c1O [Ex46] | ≤ 0.5
O=C1/C(=C/c2cc(OCc3ccncc3)c(O)cc2Br)Sc2ncccc21 [Ex72] | ≤ 0.5
CN1C(=O)S/C(=C\c2cc(OCc3cnc(-n4ccnc4)nc3)c(O)cc2Br)C1=O [Ex168] | 0.5 to 10
COc1cc(/C=c2\sc3ncc(C)n3c2=O)c(Br)cc1O [Ex17] | ≥ 10
COc1cc(/C=C2\Sc3ncccc3C2=O)c(C)cc1O [Ex76] | 0.5 to 10
CC(Oc1cc(/C=C2\SC(=O)N(C)C2=O)c(Br)cc1O)c1cnc(Cl)nc1 (stereo not drawn) [Ex104] | 0.5 to 10
CN1C(=O)S/C(=C\c2cc(OCc3ccc(NC(=O)c4ccccn4)nc3)c(O)cc2Br)C1=O [Ex56] | 0.5 to 10
CC(C)C(=O)Nc1cncc(COc2cc(/C=C3\SC(=O)N(C)C3=O)c(Br)cc2O)c1 [Ex226] | ≥ 10
CN1C(=O)S/C(=C\c2cc(OCc3cnc(C4CCNCC4)nc3)c(O)cc2Br)C1=O [Ex95] | 0.5 to 10
CN1C(=O)S/C(=C\c2cc(O)c(O)cc2F)C1=O [Ex10] | ≥ 10
CN1C(=O)S/C(=C\c2cc(Oc3cccc4ncccc34)c(O)cc2Br)C1=O [ExB5] | ≥ 10
CN1C(=O)S/C(=C\c2cc(OCc3cncnc3O)c(O)cc2Br)C1=O [Ex218] | ≤ 0.5
CSc1ccc(CCc2cc(/C=C3\SC(=O)N(C)C3=O)c(Br)cc2O)cc1 [ExB15] | 0.5 to 10
CC(C)c1cc(/C=C2\SC(=O)N(C)C2=O)c(Br)cc1O [ExB18] | ≥ 10
COc1cc(/C=C2\Sc3nccnc3C2=O)c(Br)cc1O [Ex50] | 0.5 to 10
CN1C(=O)S/C(=C\c2cc(OCc3cncc(NC(=O)c4ccncc4)c3)c(O)cc2Br)C1=O [Ex225] | ≥ 10
CN1C(=O)S/C(=C\c2cc(Oc3ccc(=O)[nH]c3)c(O)cc2Br)C1=O [Ex231] | 0.5 to 10
CC(Oc1cc(/C=C2\Sc3ncccc3C2=O)c(Br)cc1O)c1cnc(Cl)nc1 (stereo not drawn) [Ex121] | ≤ 0.5
CSc1ncc(COc2cc(/C=C3\SC(=O)N(C)C3=O)c(Br)cc2O)c(Cl)n1 [Ex98] | 0.5 to 10
C#Cc1cc(O)c(OC)cc1/C=C1\SC(=O)N(C)C1=O [Ex19] | ≥ 10
CSc1ncc(COc2cc(/C=C3\SC(=O)N(C)C3=O)c(Br)cc2O)cn1 [Ex144] | 0.5 to 10
